# How the values were obtained:
# [1] = target: T1, GRK6(h) (Homo sapiens, UniProt P43250); assay: Kinase panel; type: biochemical
# T1 construct: purchased Millipore KinaseProfiler
# [2] = system: hematological tumor cell lines; assay: 3-day proliferation assay (CellTiter-Glo); type: cell-based, human; details: for IC50: Homo sapiens
# Protocol: Various tumor cell lines were obtained from different sources including; the American Type Cell Culture Collection, the Developmental Therapeutics Program, the National Cancer Institute, the German Resource Center for Biological Material and the European Collection of Animal Cell Cultures. Cell lines were typically grown in […] containing 10% FBS. Some cell lines were grown in media specified by the vendor. A 3-day proliferation assay using CellTiter-Glo (CTG, Promega) was performed to measure the growth inhibition by the compounds at 0–30 µM. Cell growth was determined relative to untreated (DMSO) controls. EC50's were calculated from inhibition curves using a 4- or 6-parameter fitting algorithm in the Assay Client application.
# [3] = target: T2, eEF-2K(h) (Homo sapiens, UniProt O00418); assay: Kinase panel; type: biochemical
# T2 construct: purchased Millipore KinaseProfiler
# [4] = target: T3, BrSK2(h) (Homo sapiens, UniProt Q8IWQ3); assay: Kinase panel; type: biochemical
# T3 construct: purchased Millipore KinaseProfiler
# T3 sequence (Q8IWQ3 1-736): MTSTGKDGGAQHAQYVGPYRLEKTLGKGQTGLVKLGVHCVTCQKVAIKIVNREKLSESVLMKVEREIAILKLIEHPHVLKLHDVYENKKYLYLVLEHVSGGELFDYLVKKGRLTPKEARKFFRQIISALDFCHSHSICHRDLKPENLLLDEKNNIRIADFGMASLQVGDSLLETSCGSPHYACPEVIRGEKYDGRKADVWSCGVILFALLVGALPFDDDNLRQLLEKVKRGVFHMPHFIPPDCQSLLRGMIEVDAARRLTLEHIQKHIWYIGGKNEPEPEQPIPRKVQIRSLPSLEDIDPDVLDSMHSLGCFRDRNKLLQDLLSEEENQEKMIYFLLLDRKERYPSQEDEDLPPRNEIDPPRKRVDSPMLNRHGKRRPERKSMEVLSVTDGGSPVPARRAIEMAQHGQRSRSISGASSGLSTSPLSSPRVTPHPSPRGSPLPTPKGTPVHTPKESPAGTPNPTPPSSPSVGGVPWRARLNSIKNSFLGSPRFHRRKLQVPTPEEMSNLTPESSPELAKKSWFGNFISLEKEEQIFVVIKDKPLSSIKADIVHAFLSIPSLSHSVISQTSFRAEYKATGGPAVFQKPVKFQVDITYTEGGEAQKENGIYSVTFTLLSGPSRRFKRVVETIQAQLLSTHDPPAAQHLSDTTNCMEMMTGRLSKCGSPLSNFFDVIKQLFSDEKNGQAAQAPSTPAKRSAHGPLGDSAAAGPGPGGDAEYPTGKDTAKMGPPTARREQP
# T1 sequence (P43250 whole entry): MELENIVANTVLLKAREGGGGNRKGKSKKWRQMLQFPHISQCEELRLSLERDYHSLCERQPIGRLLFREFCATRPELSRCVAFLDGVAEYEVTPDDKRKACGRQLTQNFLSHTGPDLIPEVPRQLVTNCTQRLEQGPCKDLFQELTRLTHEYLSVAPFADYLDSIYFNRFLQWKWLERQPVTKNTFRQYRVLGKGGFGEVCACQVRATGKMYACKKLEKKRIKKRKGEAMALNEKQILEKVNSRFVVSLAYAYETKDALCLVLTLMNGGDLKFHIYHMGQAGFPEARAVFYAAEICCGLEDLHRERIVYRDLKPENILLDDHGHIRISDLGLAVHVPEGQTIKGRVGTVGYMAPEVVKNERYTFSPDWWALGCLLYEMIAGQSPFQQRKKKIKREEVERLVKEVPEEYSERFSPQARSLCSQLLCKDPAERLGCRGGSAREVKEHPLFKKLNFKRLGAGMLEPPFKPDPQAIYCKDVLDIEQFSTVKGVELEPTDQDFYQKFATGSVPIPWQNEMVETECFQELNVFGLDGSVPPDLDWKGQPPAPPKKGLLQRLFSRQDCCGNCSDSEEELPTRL
structure (smiles),measurement,setting,value
Cn1ncc(Cl)c1-c1cc(C(=O)N[C@H](CN)Cc2cccc(F)c2)sc1Cl [GSK2110183],inhibition at 0.5 µM,[1],-8%
same,inhibition at 10 µM,[1],10%
same,hematological cell lines sensitive (EC50<1 µM),"[2]; 112 cell lines, 3 days, CTG",65%
same,IC50,"[2]; 1A2, 1A2 cell line, Burkitt's Lymphoma, B Cell",104 nM
same,IC50,"[2]; 697 cell line, ALL, pre-B Cell",737 nM
same,IC50,"[2]; ARH-77, ARH77 cell line, Multiple Myeloma, B Cell",313 nM
same,IC50,"[2]; B-cell, BDCM cell line, AML, B Cell",26 nM
same,IC50,"[2]; B-cell, CESS cell line, AML, B Cell",475 nM
same,IC50,"[2]; B-cell, HKB-11 cell line, Burkitt's Lymphoma, B Cell",167 nM
same,IC50,"[2]; B-cell, HS-Sultan cell line, Burkitt's Lymphoma, B Cell",649 nM
same,IC50,"[2]; B-cell, KARPAS-231 cell line, ALL, B Cell",119 nM
same,IC50,"[2]; B-cell, MN60 cell line, ALL, B Cell",1930 nM
same,IC50,"[2]; B-cell, Namalwa cell line, Burkitt's Lymphoma, B Cell",908 nM
same,IC50,"[2]; B-cell, SD-1 cell line, ALL, B Cell",10 nM
same,IC50,"[2]; B-cell, Tanoue cell line, ALL, B Cell",1040 nM
same,IC50,"[2]; BC1, BC1 cell line, Burkitt's Lymphoma, B Cell",2100 nM
same,IC50,"[2]; BC-3, BC3 cell line, Burkitt's Lymphoma, B Cell",16300 nM
same,IC50,"[2]; BV-173, BV173 cell line, CML, pre-B Cell",1210 nM
same,IC50,"[2]; CA46, CA46 cell line, Burkitt's Lymphoma, B Cell",2320 nM
same,IC50,"[2]; CCRF-CEM, CCRFCEM cell line, ALL, T Cell",369 nM
same,IC50,"[2]; CCRF-SB, CCRFSB cell line, ALL, B Cell",56 nM
same,IC50,"[2]; CEM/C1, CEM/C1 cell line, ALL, T Cell",109 nM
same,IC50,"[2]; CEM/C2, CEM/C2 cell line, ALL, T Cell",48 nM
same,IC50,"[2]; CML-T1, CML-T1 cell line, CML, T Cell",5080 nM
same,IC50,"[2]; CRO-AP5, CRO-AP5 cell line, Primary Effusion Lymphoma (PEL), B Cell",67 nM
same,IC50,"[2]; DB, DB cell line, Non-Hodgkin's Lymphoma, B Cell",6320 nM
same,IC50,"[2]; DG-75, DG75 cell line, Burkitt's Lymphoma, B Cell",14900 nM
same,IC50,"[2]; DOHH-2, DOHH-2 cell line, Non-Hodgkin's Lymphoma, B Cell",38 nM
same,IC50,"[2]; Daudi, DAUDI cell line, Burkitt's Lymphoma, B Cell",441 nM
same,IC50,"[2]; EB1, EB1 cell line, Burkitt's Lymphoma, B Cell",110 nM
same,IC50,"[2]; EB2, EB2 cell line, Burkitt's Lymphoma, B Cell",631 nM
same,IC50,"[2]; EB-3, EB3 cell line, Burkitt's Lymphoma, B Cell",2970 nM
same,IC50,"[2]; EM-2, EM2 cell line, CML, Unspecified",1220 nM
same,IC50,"[2]; GA-10, GA-10 cell line, Burkitt's Lymphoma, B Cell",237 nM
same,IC50,"[2]; GDM-1, GDM-1 cell line, AML, Monoblast",2820 nM
same,IC50,"[2]; HD-MY-Z cell line, Hodgkin's Lymphoma, Unspecified",9120 nM
same,IC50,"[2]; HEL 92.1.7, HEL92.1.7 cell line, AML, Erythroleukemia",14100 nM
same,IC50,"[2]; HH, HH cell line, Non-Hodgkin's Lymphoma (CTCL), T Cell",301 nM
same,IC50,"[2]; HL-60, HL-60 cell line, AML, Myeloblast",2580 nM
same,IC50,"[2]; HSB2, HSB2 cell line, ALL, T Cell",5350 nM
same,IC50,"[2]; HT, HT cell line, Burkitt's Lymphoma, B Cell",206 nM
same,IC50,"[2]; HuT78, HuT78 cell line, Non-Hodgkin's Lymphoma (CTCL), T Cell",544 nM
same,IC50,"[2]; J.gamma1, J.Gamma-1 cell line, ALL, T Cell",57 nM
same,IC50,"[2]; JIYOYE, JIYOYE cell line, Burkitt's Lymphoma, B Cell",1850 nM
same,IC50,"[2]; JM1, JM1 cell line, Burkitt's Lymphoma, pre-B Cell",759 nM
same,IC50,"[2]; Jurkat, Jurkat cell line, ALL, T Cell",28 nM
same,IC50,"[2]; K562, K562 cell line, CML, Lymphoblast",4450 nM
same,IC50,"[2]; KG-1, KG-1 cell line, AML, B Cell",61 nM
same,IC50,"[2]; KU812, Ku812 cell line, CML, Basophilic Leukocyte",187 nM
same,IC50,"[2]; Kasumi 1, Kasumi-1 cell line, AML, Myeloblast",131 nM
same,IC50,"[2]; Kasumi-2 cell line, AML, Myeloblast",996 nM
same,IC50,"[2]; L-428, L428 cell line, Hodgkin's Lymphoma, Unspecified",1.35 nM
same,IC50,"[2]; MC116, MC116 cell line, Burkitt's Lymphoma, B Cell",1080 nM
same,IC50,"[2]; MEG-01, MEG01 cell line, CML, Megakaryoblastic",6140 nM
same,IC50,"[2]; MHH-CALL-3 cell line, ALL, pre-B Cell",1220 nM
same,IC50,"[2]; MHH-PREB-1, MHH-PREB-1 cell line, Non-Hodgkin's Lymphoma, B Cell",1920 nM
same,IC50,"[2]; ML-2, ML-2 cell line, AML, Myelomonocytic",981 nM
same,IC50,"[2]; MOLT-3, MOLT3 cell line, ALL, T Cell",62 nM
same,IC50,"[2]; MOLT-4, Molt-4 cell line, ALL, T Cell",14 nM
same,IC50,"[2]; MOLT-16, MOLT16 cell line, ALL, T Cell",481 nM
same,IC50,"[2]; MV4-11, MV-4-11 cell line, AML, Myelomonocytic",1270 nM
same,IC50,"[2]; NALM-6, Nalm-6 cell line, ALL, pre-B Cell",352 nM
same,IC50,"[2]; NC-37, NC-37 cell line, Burkitt's Lymphoma, B Cell",1780 nM
same,IC50,"[2]; NOMO-1, Nomo-1 cell line, AML, B Cell",104 nM
same,IC50,"[2]; NU-DHL-1, NU-DHL-1 cell line, Burkitt's Lymphoma, B Cell",64 nM
same,IC50,"[2]; OCI-AML2, OCI-AML-2 cell line, AML, B Cell",10300 nM
same,IC50,"[2]; OCI-AML-3, OCI-AML-3 cell line, AML, B Cell",113 nM
same,IC50,"[2]; OCI-M1, OCI-M1 cell line, AML, B Cell",1130 nM
same,IC50,"[2]; P3HR-1, P3HR-1 cell line, Burkitt's Lymphoma, B Cell",69 nM
same,IC50,"[2]; PLB-985, PLB985 cell line, AML, B Cell",2990 nM
same,IC50,"[2]; Pfeiffer, Pfeiffer cell line, Non-Hodgkin's Lymphoma, B Cell",13 nM
same,IC50,"[2]; RCH-ACV cell line, ALL, pre-B Cell",668 nM
same,IC50,"[2]; RCK8, RC-K8 cell line, Non-Hodgkin's Lymphoma (Histiocytic), B Cell",5390 nM
same,IC50,"[2]; REH, Reh cell line, ALL, pre-B Cell",292 nM
same,IC50,"[2]; RL, RL cell line, Non-Hodgkin's Lymphoma, B Cell",225 nM
same,IC50,"[2]; RPMI-6666, RPMI 6666 cell line, Hodgkin's Lymphoma, Lymphoblast",135 nM
same,IC50,"[2]; RS4-11, RS4;11 cell line, ALL, B Cell",539 nM
same,IC50,"[2]; Raji, Raji cell line, Burkitt's Lymphoma, B Cell",6590 nM
same,IC50,"[2]; Rec1, REC-1 cell line, Non-Hodgkin's Lymphoma, B Cell",3690 nM
same,IC50,"[2]; SC-1, SC1 cell line, Burkitt's Lymphoma, B Cell",2130 nM
same,IC50,"[2]; SEM cell line, ALL, pre-B Cell",347 nM
same,IC50,"[2]; SKO-007, SKO-007 cell line, Multiple Myeloma, B Cell",6770 nM
same,IC50,"[2]; SR, SR cell line, Non-Hodgkin's Lymphoma, Lymphoblast",2510 nM
same,IC50,"[2]; ST486, ST486 cell line, Burkitt's Lymphoma, B Cell",2450 nM
same,IC50,"[2]; SU-DHL10, SU-DHL-10 cell line, Non-Hodgkin's Lymphoma, B Cell",175 nM
same,IC50,"[2]; SU-DHL-4, SU-DHL-4 cell line, Non-Hodgkin's Lymphoma, B Cell",114 nM
same,IC50,"[2]; SU-DHL-5, SU-DHL-5 cell line, Non-Hodgkin's Lymphoma, B Cell",153 nM
same,IC50,"[2]; SU-DHL-6, SU-DHL-6 cell line, Non-Hodgkin's Lymphoma, B Cell",63 nM
same,IC50,"[2]; SU-DHL-16, SU-DHL-16 cell line, Non-Hodgkin's Lymphoma, B Cell",62 nM
same,IC50,"[2]; SUP-B15, SUP B15 cell line, ALL, B Cell",1940 nM
same,IC50,"[2]; T-cell, 8E5 cell line, ALL, T Cell",43 nM
same,IC50,"[2]; T-cell, CEM/C3 cell line, ALL, T Cell",35 nM
same,IC50,"[2]; T-cell, I2.1 cell line, ALL, T Cell",48 nM
same,IC50,"[2]; T-cell, J.Cam.1.6 cell line, ALL, T Cell",110 nM
same,IC50,"[2]; T-cell, J.RT-T3.5 cell line, ALL, T Cell",54 nM
same,IC50,"[2]; T-cell, JR45.01 cell line, ALL, T Cell",33 nM
same,IC50,"[2]; T-cell, LOUCY cell line, ALL, T Cell",63 nM
same,IC50,"[2]; T-cell, MJ cell line, Non-Hodgkin's Lymphoma (CTCL), T Cell",4730 nM
same,IC50,"[2]; T-cell, SUPTI(VB) cell line, ALL, T Cell",200 nM
same,IC50,"[2]; TO 175.T, TO 175.T cell line, Hodgkin's Lymphoma, Unspecified",8490 nM
same,IC50,"[2]; Toledo, Toledo cell line, Non-Hodgkin's Lymphoma, B Cell",1150 nM
same,IC50,"[2]; U-937, U937 cell line, Non-Hodgkin's Lymphoma (Histiocytic), Monocyte",26 nM
same,inhibition at 0.5 µM,[3],-3%
same,inhibition at 10 µM,[3],13%
same,inhibition at 0.5 µM,[4],-2%
same,inhibition at 10 µM,[4],17%
